The test concerns IL-1β production in PMA-differentiated THP-1 cells. Nature of the test: IL-1β production in PMA-differentiated THP-1 cells stimulated with gramicidin (hTHP-1 assay containing 2% fetal bovine serum). It counts as cell-based, human. To be noted: Table B1; 2% fetal bovine serum; class symbols; read-out: hTHP-1 IC50 (Average IC50 of compounds in hTHP-1 assay). The method, then: Procedure 1: IL-1β Production in PMA-Differentiated THP-1 Cells Stimulated with Gramicidin.
THP-1 cells were purchased from the American Type Culture Collection and sub-cultured according to instructions from the supplier. Cells were cultured in complete RPMI 1640 (containing 10% heat inactivated FBS, penicillin (100 units/ml) and streptomycin (100 μg/ml)), and maintained in log phase prior to experimental setup. Prior to the experiment, compounds were dissolved in dimethyl sulfoxide (DMSO) to generate a 30 mM stock. The compound stock was first pre-diluted in DMSO to 3, 0.34, 0.042 and 0.0083 mM intermediate concentrations and subsequently spotted using Echo550 liquid handler into an empty 384-well assay plate to achieve desired final concentration (e.g. 100, 33, 11, 3.7, 1.2, 0.41, 0.14, 0.046, 0.015, 0.0051, 0.0017 μM). DMSO was backfilled in the plate to achieve a final DMSO assay concentration of 0.37%. The plate was then sealed and stored at room temperature until required.
THP-1 cells were treated with PMA (Phorbol 12-myristate 13-acetate) (20 ng/ml) for 16-18 hours. On the day of the experiment the media was removed and adherent cells were detached with trypsin for 5 minutes. Cells were then harvested, washed with complete RPMI 1640, spun down, and resuspended in RPMI 1640 (containing 2% heat inactivated FBS, penicillin (100 units/ml) and streptomycin (100 μg/ml). The cells were plated in the 384-well assay plate containing the spotted compounds at a density of 50,000 cells/well (final assay volume 50 μl). Cells were incubated with compounds for 1 hour and then stimulated with gramicidin (5 μM) (Enzo) for 2 hours. Plates were then centrifuged at 340 g for 5 min. Cell free supernatant (40 μL) was collected using a 96-channel PlateMaster (Gilson) and the production of IL-1β was evaluated by HTRF (cisbio). The plates were incubated for 18 h at 4° C. and read using the preset HTRF program (donor emission at 620 nm, acceptor emission at 668 nm) of the SpectraMax i3x spectrophotometer (Molecular Devices, software SoftMax 6). A vehicle only control and a dose titration of CRID3 (100-0.0017 μM) were run concurrently with each experiment.
Procedure 2: IL-1β Production in PMA-Differentiated THP-1 Cells Stimulated with Gramicidin.
THP-1 cells were purchased from the American Type Culture Collection and sub-cultured according to instructions from the supplier. Prior to experiments, cells were cultured in complete RPMI 1640 (containing 10% heat inactivated FBS, penicillin (100 units/ml) and streptomycin (100 μg/ml)), and maintained in log phase prior to experimental setup. Prior to the experiment THP-1 were treated with PMA (Phorbol 12-myristate 13-acetate) (20 ng/ml) for 16-18 hours. Compounds were dissolved in dimethyl sulfoxide (DMSO) to generate a 30 mM stock. On the day of the experiment the media was removed and adherent cells were detached with trypsin for 5 minutes. Cells were then harvested, washed with complete RPMI 1640, spun down, resuspended in RPMI 1640 (containing 2% heat inactivated FBS, penicillin (100 units/ml) and streptomycin (100 μg/ml). The cells were plated in a 384-well plate at a density of 50,000 cells/well (final assay volume 50 μl). Compounds were first dissolved in assay medium to obtain a 5× top concentration of 500 μM. 10 step dilutions (1:3) were then undertaken in assay medium containing 1.67% DMSO. 5× compound solutions were added to the culture medium to achieve desired final concentration (e.g. 100, 33, 11, 3.7, 1.2, 0.41, 0.14, 0.046, 0.015, 0.0051, 0.0017 μM). Final DMSO concentration was at 0.37%. Cells were incubated with compounds for 1 hour and then stimulated with gramicidin (5 μM) (Enzo) for 2 hours. Plates were then centrifuged at 340 g for 5 min. Cell free supernatant (40 μL) was collected using a 96-channel PlateMaster (Gilson) and the production of IL-1β was evaluated by HTRF (cisbio). A vehicle only control and a dose titration of CRID3 (100-0.0017 μM) were run concurrently with each experiment. […]
Usually IC50 stands for the concentration that gives 50% inhibition. Consider `CC(C)c1cc(F)cc(C(C)C)c1CC(=O)N=S(N)(=O)c1sc(C(C)(C)O)cc1F` (single isomer, unassigned) [Example 50, (S)- or (R)-2-(4-fluoro-2,6-diisopropylphenyl)-N-(3-fluoro-5-(2-hydroxypropan-2-yl)thiophen-2-ylsulfonimidoyl)acetamide], for which the 50% inhibitory concentration (IC50) lay within 8 to 40 nM. As to `CC(C)c1cc(F)cc(C(C)C)c1CC(=O)N=S(N)(=O)c1sc(C(C)(C)O)cc1F` (single isomer, unassigned) [Example 51, (R)- or (S)-2-(4-fluoro-2,6-diisopropylphenyl)-N-(3-fluoro-5-(2-hydroxypropan-2-yl)thiophen-2-ylsulfonimidoyl)acetamide], the IC50 lay within 200 to 1000 nM. As for `CC(C)c1cc(F)cc(C2CC2)c1CC(=O)N=S(N)(=O)c1sc(C(C)(C)O)cc1F` (single isomer, unassigned) [Example 52, (S)- or (R)-2-(2-cyclopropyl-4-fluoro-6-isopropylphenyl)-N-(3-fluoro-5-(2-hydroxypropan-2-yl)thiophen-2-ylsulfonimidoyl)acetamide], the concentration for half-maximal inhibition (IC50) is 8 to 40 nM. As to `CC(C)c1cc(F)cc(C2CC2)c1CC(=O)N=S(N)(=O)c1sc(C(C)(C)O)cc1F` (single isomer, unassigned) [Example 53, (R)- or (S)-2-(2-cyclopropyl-4-fluoro-6-isopropylphenyl)-N-(3-fluoro-5-(2-hydroxypropan-2-yl)thiophen-2-ylsulfonimidoyl)acetamide], the IC50 is 1000 to 5000 nM. Take `CC(C)c1c(F)c(C#N)cc(C2CC2)c1CC(=O)N=S(N)(=O)c1sc(C(C)(C)O)cc1F` (single isomer, unassigned) [Example 54, (S)- or (R)-2-(4-cyano-6-cyclopropyl-3-fluoro-2-isopropylphenyl)-N-(3-fluoro-5-(2-hydroxypropan-2-yl)thiophen-2-ylsulfonimidoyl)acetamide]: the IC50 is 8 to 40 nM.

For `CC(C)c1c(F)c(C#N)cc(C2CC2)c1CC(=O)N=S(N)(=O)c1sc(C(C)(C)O)cc1F` (single isomer, unassigned) [Example 55, (R)- or (S)-2-(4-cyano-6-cyclopropyl-3-fluoro-2-isopropylphenyl)-N-(3-fluoro-5-(2-hydroxypropan-2-yl)thiophen-2-ylsulfonimidoyl)acetamide], the IC50 lay within 1000 to 5000 nM.

In the case of `CC(C)c1cc(Cl)c(F)c(C2CC2)c1CC(=O)N=S(N)(=O)c1sc(C(C)(C)O)cc1F` (single isomer, unassigned) [Example 56, (S)- or (R)-2-(4-chloro-2-cyclopropyl-3-fluoro-6-isopropylphenyl)-N-(3-fluoro-5-(2-hydroxypropan-2-yl)thiophen-2-ylsulfonimidoyl)acetamide], the IC50 was in the range of 200 to 1000 nM.

On to `CC(C)c1cc(Cl)c(F)c(C2CC2)c1CC(=O)N=S(N)(=O)c1sc(C(C)(C)O)cc1F` (single isomer, unassigned) [Example 57, (R)- or (S)-2-(4-chloro-2-cyclopropyl-3-fluoro-6-isopropylphenyl)-N-(3-fluoro-5-(2-hydroxypropan-2-yl)thiophen-2-ylsulfonimidoyl)acetamide], for which the IC50 was in the range of 1000 to 5000 nM.

Consider `Cc1nc(C(C)(C)O)sc1S(N)(=O)=NC(=O)Cc1c(C(C)C)cc(C#N)cc1C(C)C` (single isomer, unassigned) [Example 60, (S)- or (R)-2-(4-cyano-2,6-diisopropylphenyl)-N-(2-(2-hydroxypropan-2-yl)-4-methylthiazole-5-sulfonimidoyl)acetamide], for which the concentration for half-maximal inhibition (IC50) fell in the range of 40 to 200 nM.

Take `Cc1nc(C(C)(C)O)sc1S(N)(=O)=NC(=O)Cc1c(C(C)C)cc(C#N)cc1C(C)C` (single isomer, unassigned) [Example 61, (R)- or (S)-2-(4-cyano-2,6-diisopropylphenyl)-N-(2-(2-hydroxypropan-2-yl)-4-methylthiazole-5-sulfonimidoyl)acetamide]: the IC50 was in the range of 5000 to 30000 nM.

With `CC(C)c1cc(C#N)cc(C(C)C)c1CC(=O)N=S(N)(=O)c1sc(C(C)(C)O)nc1CO` (single isomer, unassigned) [Example 64, N-(amino(4-(hydroxymethyl)-2-(2-hydroxypropan-2-yl)thiazol-5-yl)(oxo)-λ^6-sulfaneylidene)-2-(4-cyano-2,6-diisopropylphenyl)acetamide], the half-maximal inhibitory concentration (IC50) is 200 to 1000 nM.

Take `CC(C)c1cc(C#N)cc(C(C)C)c1CC(=O)N=S(N)(=O)c1sc(C(C)(C)O)nc1CO` (single isomer, unassigned) [Example 65]: the IC50 lay in the range of 5000 to 30000 nM. In the case of `COCc1cc(C(C)C)c(CC(=O)N=S(N)(=O)c2sc(C(C)(C)O)nc2CO)c(C(C)C)c1` (single isomer, unassigned) [Example 68, (S)- or (R)-2-(2,6-diisopropyl-4-(methoxymethyl)phenyl)-N-(4-(hydroxymethyl)-2-(2-hydroxypropan-2-yl)thiazol-5-ylsulfonimidoyl)acetamide], the IC50 lay in the range of 200 to 1000 nM. To `COCc1cc(C(C)C)c(CC(=O)N=S(N)(=O)c2sc(C(C)(C)O)nc2CO)c(C(C)C)c1` (single isomer, unassigned) [Example 69, (R)- or (S)-2-(2,6-diisopropyl-4-(methoxymethyl)phenyl)-N-(4-(hydroxymethyl)-2-(2-hydroxypropan-2-yl)thiazol-5-ylsulfonimidoyl)acetamide] belongs 5000 to 30000 nM; to `CC(C)c1cc(C#N)cc(C2CC2)c1CC(=O)N=S(N)(=O)c1sc(C(C)(C)O)nc1CO` (single isomer, unassigned) [Example 70, (S)- or (R)-(4-cyano-2-cyclopropyl-6-isopropylphenyl)-N-(4-(hydroxymethyl)-2-(2-hydroxypropan-2-yl)thiazol-5-ylsulfonimidoyl)acetamide], 200 to 1000 nM; to `CC(C)c1cc(C#N)cc(C2CC2)c1CC(=O)N=S(N)(=O)c1sc(C(C)(C)O)nc1CO` (single isomer, unassigned) [Example 71, (R)- or (S)-2-(4-cyano-2-cyclopropyl-6-isopropylphenyl)-N-(4-(hydroxymethyi)-2-(2-hydroxypropan-2-yl)thiazol-5-ylsulfonimidoyl)acetamide], 5000 to 30000 nM. As to `CC(C)c1cc(OC(F)F)cc(C(C)C)c1CC(=O)N=S(N)(=O)c1sc(C(C)(C)O)cc1F` (single isomer, unassigned) [Example 76, (S)- or (R)-2-(4-(difluoromethoxy)-2,6-diisopropylphenyl)-N-(3-fluoro-5-(2-hydroxypropan-2-yl)thiophen-2-ylsulfonimidoyl)acetamide], the 50% inhibitory concentration (IC50) lay in the range of 40 to 200 nM. As to `CC(C)c1cc(OC(F)F)cc(C(C)C)c1CC(=O)N=S(N)(=O)c1sc(C(C)(C)O)cc1F` (single isomer, unassigned) [Example 77, (R)- or (S)-(4-(difluoromethoxy)-2,6-diisopropylphenyl)-N-(3-fluoro-5-(2-hydroxypropan-2-yl)thiophen-2-ylsulfonimidoyl)acetamide], the half-maximal inhibitory concentration (IC50) lay within 1000 to 5000 nM. On to `CCc1cc(OC(F)F)cc(C(C)C)c1CC(=O)N=S(N)(=O)c1sc(C(C)(C)O)cc1F` (single isomer, unassigned) [Example 78, (S)- or (R)-2-(4-(difluoromethoxy)-2-ethyl-6-isopropylphenyl)-N-(3-fluoro-5-(2-hydroxypropan-2-yl)thiophen-2-ylsulfonimidoyl)acetamide], for which the half-maximal inhibitory concentration (IC50) lay within 200 to 1000 nM.

These data come from US20230059136A1, “THE COMPOUNDS AND COMPOSITIONS FOR TREATING CONDITIONS ASSOCIATED WITH NLRP ACTIVITY” (Novartis AG, priority 2018, published 2023).
